Where two headings read alike, the source gives them in different places.
Legend:
[1] = test system: ovulation in four-day cyclic rats; experiment: Anti-ovulatory effect in four-day cyclic rats, oral twice daily for four days, ova per oviduct counted; format: in vivo, rat; conditions: for ED50: Rattus norvegicus, po, 96 h, four-day cyclic rats; for rats with ovulation inhibited: Days 1-4, 8 rats per group
Method: Vaginal smears from female rats were obtained daily for two weeks prior to the start of treatment to identify four-day cycling rats. All treatments were administered orally twice daily at approximately 6:30 am and 4:30 pm for four consecutive days (Days 1-4), starting on the day of estrus. One day after the final dose (Day 5), the rats were euthanized by CO2 asphyxiation at approximately 1 pm, and the number of ova per oviduct was counted by visualization under a dissecting microscope and recorded. In one study, animals (8 per group) were treated with E4 (0.03; 0.1; 0.3; 1.0 or 3.0 mg/kg) or ethinylestradiol (EE) (0.0003; 0.001; 0.003, 0.01 or 0.03 mg/kg). The control group was given the vehicle only. In another study, the antiovulatory activity of E4 was evaluated relative to that of estradiol (E2). Animals (8 per group) were treated with E4, E2 or vehicle (control group).

[2] = test system: estrogen-sensitive parameters related to hepatic and bone metabolism; experiment: Pharmacodynamics: estrogen-sensitive hepatic and bone metabolism parameters and endometrial stimulation in postmenopausal women; format: in vivo, human; conditions: single oral dose
Method: (§1) In the present example the safety, tolerability, pharmacokinetics and pharmacodynamics of a single escalating dose of E4 (0.1, 1, 10 and 100 mg) was evaluated in healthy postmenopausal women.
(§2) A double-blind, randomized, placebo-controlled, single rising dose study (0.1, 1, 10 and 100 mg of E4) was performed in healthy postmenopausal women. 32 healthy postmenopausal female volunteers between 53 and 69 years of age were enrolled. Menopause was defined as ≧12 months amenorrhea or 6 months amenorrhea with serum FSH levels≧40 IU/l and serum E2<73 pmol/l. […] A total of 8 subjects were assigned to each dose group; six subjects received active treatment and two subjects received placebo.
Some fast reacting, estrogen-sensitive parameters related to hepatic and bone metabolism were determined in the 100-mg dose group only. […] Interpretation of the pharmacodynamic data must be made with care taking into consideration the small number of subjects and the single dose administration.

[3] = test system: healthy postmenopausal women; experiment: Safety and tolerability of a single rising oral dose in healthy postmenopausal women; format: in vivo, human; conditions: for safety and tolerability after single administration: dose up to 100 mg, humans
Method: as §1, §2

[4] = test system: adult female cynomolgus monkeys; experiment: Maximum tolerated dose (MTD) study in adult female cynomolgus monkeys; format: in vivo
Method: A maximum tolerated dose (MTD) study was performed in adult female cynomolgus monkeys.
Three control animals were treated orally with vehicle, and four other animals were treated orally with E4 as a suspension in vehicle at single increasing doses of 1, 10, 100 or 1000 mg/kg on days 1, 3, 6 and 14 respectively.

[5] = test system: ovulation and pregnancy in fertile female rabbits; experiment: Prevention of pregnancy in rabbits, twice daily dosing for 14 days starting four days before mating; format: in vivo, rabbit
Method: Eighteen proven fertile female rabbits, 3 per group were dosed twice daily at approximately 12 hour intervals for 14 days starting four days before mating: Group 1: vehicle control (ASV: 0.9% sodium chloride, 0.4% polysorbate 80, 0.5% carboxymethylcellulose and 0.9% benzyl alcohol in distilled or deionised water, 1 ml/kg), Group 2: 0.01 mg/kg E4 in ASV, 1 ml/kg, Group 3: 0.03 mg/kg E4 in ASV, 1 ml/kg, Group 4: 0.1 mg/kg E4 in ASV, 1 ml/kg, Group 5: 0.3 mg/kg E4 in ASV, 1 ml/kg and Group 6: 1.0 mg/kg E4 in ASV, 1 ml/kg. Doses were determined by body weights taken the first day of dosing and were adjusted according to weights obtained one week later. Each female rabbit was bred with two proven fertile male rabbits after four days of dosing. The females were necropsied ten days later and the number of pregnancies were determined.

[6] = test system: FSH levels; experiment: Pharmacodynamics: FSH levels after a single oral dose in postmenopausal women; format: in vivo, human; conditions: 100 mg dose group
Method: as §1, §2

[7] = test system: mated female Wistar rats; experiment: Effects of E4 on the pregnancy of the Wistar rat, oral gavage Day 6 to 17 of gestation; format: in vivo; conditions: for females observed to be hunched towards the end of gestation: seven rats per group
Method: In one study, groups of seven mated female rats were given E4 orally, by gavage, at dose levels of 30, 60 or 90 mg/kg/day from Day 6 to 17 of gestation inclusive. A similar group of seven rats was given the vehicle, 0.5% w/v carboxymethylcellulose, over the same period to act as controls. On Day 20 of gestation, the females were examined.
In another study, using the same protocol as the study above, groups of seven mated female rats were given E4 at dose levels of 0.1, 0.3, 1, 3 and 10 mg/kg/day or vehicle (controls).

[8] = Pharmacokinetics of a single oral dose in healthy postmenopausal women; format: in vivo, human; conditions: for half-life: female, human, plasma, po, postmenopausal women
Method: as §1, §2
Plasma concentration profiles could not be determined in subjects of the 0.1 mg group.

[9] = test system: plasma LH levels; experiment: Pharmacodynamics: plasma LH levels after a single oral dose in postmenopausal women; format: in vivo, human
Method: as §1, §2
The maximum mean suppression was 48% at 4 hours after dosing. A second LH trough of 45% is seen at 12 hours after dosing, synchronous with the mean E4 levels.

[10] = another study, E4 vs E2, p.o., read-out: antiovulatory ED50
[11] = single increasing oral doses 1-1000 mg/kg
[12] = 0.01 mg/kg twice daily, one female failed to breed
[13] = 0.03 mg/kg twice daily, 3 animals per group
[14] = 1.0 mg/kg twice daily, 3 animals per group
[15] = 30, 60 or 90 mg/kg/day oral gavage, Day 6 to 17 of gestation
[16] = all dose groups 30, 60, 90 mg/kg/day

C[C@]12CC[C@@H]3c4ccc(O)cc4CC[C@H]3[C@@H]1CC[C@@H]2O [E2, estradiol, reference compound]
ED50 [1, 10]: 0.03 to 0.1 mg/kg

C[C@]12CC[C@@H]3c4ccc(O)cc4CC[C@H]3[C@@H]1[C@@H](O)[C@@H](O)[C@@H]2O [E4, 1,3,5(10)-estratrien-3, 15α, 16α, 17β-tetrol]
endometrial stimulation (withdrawal bleeding after progestogen post treatment) [2]: No significant endometrial stimulation
Somnolence, E = number of adverse events ([3]; 0.1 mg single oral dose, N = 6): 1
Somnolence, n = number of subjects with adverse events ([3]; 0.1 mg single oral dose, N = 6): 1
Somnolence, percentage of subjects with adverse events ([3]; 0.1 mg single oral dose, N = 6): 16.7%
Somnolence, E = number of adverse events ([3]; 1 mg single oral dose, N = 6): 1
Somnolence, n = number of subjects with adverse events ([3]; 1 mg single oral dose, N = 6): 1
Somnolence, percentage of subjects with adverse events ([3]; 1 mg single oral dose, N = 6): 16.7%
number of AEs ([3]; 10 mg group): just one AE
Myalgia, E = number of adverse events ([3]; 10 mg single oral dose, N = 6): 1
Myalgia, n = number of subjects with adverse events ([3]; 10 mg single oral dose, N = 6): 1
Myalgia, percentage of subjects with adverse events ([3]; 10 mg single oral dose, N = 6): 16.7%
number and nature of AEs versus placebo ([3]; 0.1, 1.0 and 10 mg): similar
number of AEs (all AEs and related AEs) ([3]; 100 mg): highest
Diarrhoea NOS, E = number of adverse events ([3]; 100 mg single oral dose, N = 6): 2
Diarrhoea NOS, n = number of subjects with adverse events ([3]; 100 mg single oral dose, N = 6): 2
Diarrhoea NOS, percentage of subjects with adverse events ([3]; 100 mg single oral dose, N = 6): 33.3%
Myalgia, E = number of adverse events ([3]; 100 mg single oral dose, N = 6): 2
Myalgia, n = number of subjects with adverse events ([3]; 100 mg single oral dose, N = 6): 2
Myalgia, percentage of subjects with adverse events ([3]; 100 mg single oral dose, N = 6): 33.3%
Somnolence, E = number of adverse events ([3]; 100 mg single oral dose, N = 6): 2
Somnolence, n = number of subjects with adverse events ([3]; 100 mg single oral dose, N = 6): 2
Somnolence, percentage of subjects with adverse events ([3]; 100 mg single oral dose, N = 6): 33.3%
safety and tolerability after single administration [3]: In conclusion, the results of this study showed that E4 after single administration at a dose up to 100 mg is safe and well tolerated.
safety and tolerability after single administration ([3]; listed as estetrol): safe and well tolerated
notable adverse event ([3]; one subject of the 100 mg group, not serious, mild, probably related): allergic reaction (urticaria)
severe or serious adverse events ([3]; single doses 0.1, 1, 10 and 100 mg): No severe or serious adverse events
changes in ECGs, laboratory tests or vital signs ([3]; single doses 0.1-100 mg): no notable changes
rats with ovulation inhibited ([1]; 0.03 mg/kg p.o. twice daily): did not inhibit ovulation
rats with ovulation inhibited ([1]; 0.1 mg/kg p.o. twice daily): 2 of 8
rats with ovulation inhibited ([1]; 0.3 mg/kg p.o. twice daily): 5 of 8
rats with ovulation inhibited ([1]; 1.0 mg/kg p.o. twice daily): 7 of 8
rats with ovulation inhibited ([1]; 3.0 mg/kg p.o. twice daily): 8 of 8
ED50 [1, 10]: 0.204 mg/kg
animals with decreased levels of inorganic phosphorus ([4]; 1 mg/kg, the day after dosing): 3 of 4
adverse clinical sign ([4]; 1000 mg/kg oral, approximately 12 h after dosing): emesis in one E4-treated animal
animals with decreased levels of inorganic phosphorus ([4]; after the 100 mg/kg dose): all E4-treated animals
animals with decreased levels of inorganic phosphorus ([4]; after the 1000 mg/kg dose): all E4-treated animals
tolerability of single oral treatment ([4]; doses up to 1000 mg/kg): well tolerated
effects on body weight or haematological parameters [4, 11]: No effects
gross necropsy [4, 11]: did not reveal any unusual findings
liver parameters (AST, ALT) [4, 11]: no apparent test item- or dose-related findings
dosages that caused complete prevention of pregnancy [5]: > 0.03 mg/kg b.i.d.
N corpora lutea, total number [5, 12]: 22
N pregnancies, total number [5, 12]: 22
N corpora lutea, total number [5, 13]: 22
N pregnancies, total number [5, 13]: 21
N corpora lutea, total number ([5]; 0.1 mg/kg twice daily, 3 animals per group): 20
N corpora lutea, total number ([5]; 0.3 mg/kg twice daily, 3 animals per group): 20
N corpora lutea, total number [5, 14]: 3
N pregnancies, total number [5, 14]: 0
oral doses that induce inhibition of ovulation ([5]; oral): > 0.3 mg/kg b.i.d.
maximum suppression of FSH ([6]; 48 hrs after dosing): 41%
inhibition of FSH levels ([6]; up to 168 hours (1 week) after dosing): profound and sustained inhibition
females observed to be hunched towards the end of gestation ([7]; 3 mg/kg/day): one female
mean body weight during treatment period ([7]; 10 mg/kg/day): overall loss in mean body weight
mean food intake ([7]; 10 mg/kg/day): reduced mean food intake
females observed to be hunched towards the end of gestation ([7]; 10 mg/kg/day): Three females
mean body weight gains over treatment period ([7]; 0.1, 0.3, 1 and 3 mg/kg/day): less than the controls
mean gravid uterus weight ([7]; 0.3, 1 and 3 mg/kg/day): reduction in mean gravid uterus weight
mean food intake over treatment period ([7]; 1 and 3 mg/kg/day): slightly lower than the control
clinical observations or necropsy findings related to treatment [7, 15]: no relevant unexpected clinical observations or necropsy findings
deaths [7, 15]: no deaths
group mean body weight over treatment period [7, 16]: Group mean body weight loss
mean food intake over treatment period [7, 16]: marked reduction in mean food intake
deaths ([7]; another study, 0.1, 0.3, 1, 3 and 10 mg/kg/day): no deaths
maternal toxicity ([7]; dose level below 3 mg/kg/day): only slight maternal toxicity
oral bioabsorption ([8]; dose range tested): high and dose-proportional
half-life ([8]; single oral dose, read-out: terminal half life (converted)): 28 h
half-life ([8]; single oral dose, read-out: terminal half life, ranges): 18 to 60 h
Cmax dose proportionality ([8]; range from 1 to 100 mg oral): proportional
AUC0-∞ dose proportionality ([8]; range from 10 to 100 mg oral): proportional to the oral dose
absorption ([8]; single oral dose): extremely fast
terminal half life and fractional clearance, effect of dose level ([8]; single oral dose): not affected by dose level
inter-subject variability of pharmacokinetic data ([8]; single oral dose, 1-100 mg): very low
maximum mean suppression of LH ([9]; 4 hours after dosing, 100 mg group shown in FIG. 2): 48%
second LH trough ([9]; 12 hours after dosing, 100 mg group shown in FIG. 2): 45%
inhibition of plasma LH levels ([9]; up to 48 hours after dosing): clear dose-dependent inhibition

C#C[C@]1(O)CC[C@H]2[C@@H]3CCc4cc(O)ccc4[C@H]3CC[C@@]21C [EE, ethinylestradiol, reference compound]
ED50 ([1]; study E4 vs EE, p.o. twice daily, read-out: calculated antiovulatory ED50): 0.01 mg/kg

Reference: patent US9579329B2, “Use of estetrol as emergency contraceptive” (Estetra S.P.R.L., priority 2011, dated 2017)
